Source: patent publication US20240116951A1, “HETEROCYCLIC COMPOUNDS AND USES THEREOF” (Kumquat Biosciences Inc., priority 2022, published 2024)

Columns and labels:
Assay type in all cases: binding
[1] = biological target: T1, KRAS WT (Homo sapiens, UniProt P01116); test: HTRF assay of wildtype K-Ras interaction with SOS1 (PPI-HTRF); settings: HTRF, 5 nM KRAS WT; read-out: PPI-HTRF-5 nM KRAS WT
T1 construct: made in house; host or cells: E. coli, e.g. BL21 (DE3)
Summary of the method: (§1)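 Read-out: HTRF ratio 665/620 nm (ex 337 nm) after ~10 min or longer. Donor anti-GST-Eu(K) on GST-K-Ras and acceptor anti-6His-XL665 on His-hSOS1, in HEPES pH 7.4 buffer with DTT, BSA and Igepal. Duplicate dilution series from 10 μM down to 0.01 μM gave IC50 values.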

[2] = biological target: T2, KRAS G12S (Homo sapiens, UniProt P01116, G12S); test: HTRF assay of K-Ras G12S interaction with SOS1 (PPI-HTRF); settings: 5 nM KRAS G12S, read-out: PPI-HTRF-5 nM KRAS G12S
T2 construct: made in house; host or cells: E. coli, e.g. BL21 (DE3)
T2 sequence (P01116 1-188 isoform P01116-2 G12S): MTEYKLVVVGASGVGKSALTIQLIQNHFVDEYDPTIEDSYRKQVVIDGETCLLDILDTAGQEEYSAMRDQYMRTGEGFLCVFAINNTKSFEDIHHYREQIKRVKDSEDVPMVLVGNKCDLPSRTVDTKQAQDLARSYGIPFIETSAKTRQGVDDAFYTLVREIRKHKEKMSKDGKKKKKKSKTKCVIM
Summary of the method: as §1

[3] = biological target: T3, KRAS G12D (Homo sapiens, UniProt P01116, G12D); test: HTRF assay of K-Ras G12D interaction with SOS1 (PPI-HTRF); settings: HTRF, 5 nM KRAS G12D; read-out: PPI-HTRF-5 nM KRAS G12D
T3 construct: made in house; host or cells: E. coli, e.g. BL21 (DE3)
T3 sequence (P01116 1-188 isoform P01116-2 G12D): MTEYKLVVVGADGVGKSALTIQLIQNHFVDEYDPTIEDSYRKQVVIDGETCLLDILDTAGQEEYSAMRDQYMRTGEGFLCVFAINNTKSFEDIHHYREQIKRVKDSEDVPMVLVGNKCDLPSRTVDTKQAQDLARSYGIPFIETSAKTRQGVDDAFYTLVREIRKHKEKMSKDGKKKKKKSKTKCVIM
Summary of the method: as §1

T1 sequence (P01116 1-188 isoform P01116-2): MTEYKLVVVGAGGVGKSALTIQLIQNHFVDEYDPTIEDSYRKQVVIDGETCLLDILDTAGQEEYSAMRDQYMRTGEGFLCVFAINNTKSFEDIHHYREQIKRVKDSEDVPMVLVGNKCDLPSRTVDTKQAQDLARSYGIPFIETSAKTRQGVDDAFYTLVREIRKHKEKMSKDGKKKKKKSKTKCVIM

IC50 [1]	IC50 [2]	IC50 [3]	SMILES
< 5 µM	< 5 µM	< 5 µM	N#Cc1c(N)sc2c(F)ccc(-c3c(Cl)cc4c(N5CCCC6(CCN6)C5)nc(OC[C@@]56CCCN5C[C@H](F)C6)nc4c3F)c12 (stereo partly drawn) [Compound 236, 2-amino-4-(6-chloro-8-fluoro-2-(((2R,7aS)-2-fluorotetrahydro-1H-pyrrolizin-7a(5H)-yl)methoxy)-4-(1,6-diazaspiro[3.5]nonan-6-yl)quinazolin-7-yl)-7-fluorobenzo[b]thiophene-3-carbonitrile]
< 5 µM	< 5 µM	< 5 µM	C[C@H]1N(c2nc(OC[C@@]34CCCN3C[C@H](F)C4)nc3c(F)c(-c4ccc(F)c5sc(N)c(C#N)c45)c(Cl)cc23)CC[C@@]12CCN2C(=O)n1cnc(Cl)n1 [Compound 263, 2-amino-4-(6-chloro-4-((4R,5R)-1-(3-chloro-1H-1,2,4-triazole-1-carbonyl)-5-methyl-1,6-diazaspiro[3.4]octan-6-yl)-8-fluoro-2-(((2R,7aS)-2-fluorotetrahydro-1H-pyrrolizin-7a(5H)-yl)methoxy)quinazolin-7-yl)-7-fluorobenzo[b]thiophene-3-carbonitrile]
< 5 µM	< 5 µM	< 5 µM	C[C@H](Oc1nc(N2CCCC3(CCN3C(=O)n3cncn3)C2)c2cc(Cl)c(-c3ccc(F)c4sc(N)c(C#N)c34)c(F)c2n1)[C@@H]1CCCN1C (stereo partly drawn) [Compound 201, 4-(4-(1-(1H-1,2,4-triazole-1-carbonyl)-1,6-diazaspiro[3.5]nonan-6-yl)-6-chloro-8-fluoro-2-((S)-1-((S)-1-methylpyrrolidin-2-yl)ethoxy)quinazolin-7-yl)-2-amino-7-fluorobenzo[b]thiophene-3-carbonitrile]
< 5 µM	< 5 µM	< 5 µM	N#Cc1c(N)sc2c(F)ccc(-c3c(Cl)cc4c(N5CCC6(CCCN6)C5)nc(OC[C@@]56CCCN5C[C@H](F)C6)nc4c3F)c12 (stereo partly drawn) [Compound 284, 2-amino-4-(6-chloro-8-fluoro-2-(((2R,7aS)-2-fluorotetrahydro-1H-pyrrolizin-7a(5H)-yl)methoxy)-4-(1,7-diazaspiro[4.4]nonan-7-yl)quinazolin-7-yl)-7-fluorobenzo[b]thiophene-3-carbonitrile]
< 5 µM	< 5 µM	< 5 µM	N#Cc1c(N)sc2c(F)ccc(-c3c(Cl)cc4c(N5CCC6(CCN6C(=O)n6cnc(C(F)(F)F)n6)C5)nc(OC[C@@]56CCCN5C[C@H](F)C6)nc4c3F)c12 (stereo partly drawn) [Compound 292, 2-amino-4-(6-chloro-8-fluoro-2-(((2R,7aS)-2-fluorotetrahydro-1H-pyrrolizin-7a(5H)-yl)methoxy)-4-(1-(3-(trifluoromethyl)-1H-1,2,4-triazole-1-carbonyl)-1,6-diazaspiro[3.4]octan-6-yl)quinazolin-7-yl)-7-fluorobenzo[b]thiophene-3-carbonitrile]
< 5 µM	< 5 µM	< 5 µM	N#Cc1c(N)sc2c(F)ccc(-c3c(F)c4nc(OC[C@@]56CCCN5C[C@H](F)C6)nc(N5CCC6(CCN6)C5)c4c(=O)n3C3CC3)c12 (stereo partly drawn) [Compound 333, 2-amino-4-(6-cyclopropyl-8-fluoro-2-(((2R,7aS)-2-fluorotetrahydro-1H-pyrrolizin-7a(5H)-yl)methoxy)-5-oxo-4-(1,6-diazaspiro[3.4]octan-6-yl)-5,6-dihydropyrido[4,3-d]pyrimidin-7-yl)-7-fluorobenzo[b]thiophene-3-carbonitrile]
< 5 µM	< 5 µM	< 5 µM	N#Cc1c(N)sc2c(F)ccc(-c3c(Cl)cc4c(N5CCCCC6(CCCN6C(=O)n6cncn6)C5)nc(OC[C@@]56CCCN5C[C@H](F)C6)nc4c3F)c12 (mixture of isomers) [Compound 349, 4-(4-(1-(1H-1,2,4-triazole-1-carbonyl)-1,7-diazaspiro[4.6]undecan-7-yl)-6-chloro-8-fluoro-2-(((2R,7aS)-2-fluorotetrahydro-1H-pyrrolizin-7a(5H)-yl)methoxy)quinazolin-7-yl)-2-amino-7-fluorobenzo[b]thiophene-3-carbonitrile]
< 5 µM	< 5 µM	< 5 µM	N#Cc1c(N)sc2c(F)ccc(-c3c(Cl)cc4c(N5CCC6(CCN6C(=O)ON6C(=O)CCC6=O)C5)nc(OC[C@@]56CCCN5C[C@H](F)C6)nc4c3F)c12 (stereo partly drawn) [Compound 243, 2,5-dioxopyrrolidin-1-yl 6-(7-(2-amino-3-cyano-7-fluorobenzo[b]thiophen-4-yl)-6-chloro-8-fluoro-2-(((2R,7aS)-2-fluorotetrahydro-1H-pyrrolizin-7a(5H)-yl)methoxy)quinazolin-4-yl)-1,6-diazaspiro[3.4]octane-1-carboxylate]
< 5 µM	< 5 µM	< 5 µM	N#Cc1c(N)sc2c(F)ccc(-c3c(Cl)cc4c(N5CCC6(CCCCN6C(=O)C6CC6(F)F)C5)nc(OC[C@@]56CCCN5C[C@H](F)C6)nc4c3F)c12 (stereo partly drawn) [Compound 240, 2-amino-4-(6-chloro-4-(6-(2,2-difluorocyclopropane-1-carbonyl)-2,6-diazaspiro[4.5]decan-2-yl)-8-fluoro-2-(((2R,7aS)-2-fluorotetrahydro-1H-pyrrolizin-7a(5H)-yl)methoxy)quinazolin-7-yl)-7-fluorobenzo[b]thiophene-3-carbonitrile]
< 5 µM	< 5 µM	< 5 µM	C[C@H](Oc1nc(N2CCC3(CCCN3C(=O)n3cncn3)C2)c2cc(Cl)c(-c3ccc(F)c4sc(N)c(C#N)c34)c(F)c2n1)[C@@H]1CCCN1C (stereo partly drawn) [Compound 241, 4-(4-(1-(1H-1,2,4-triazole-1-carbonyl)-1,7-diazaspiro[4.4]nonan-7-yl)-6-chloro-8-fluoro-2-((S)-1-((S)-1-methylpyrrolidin-2-yl)ethoxy)quinazolin-7-yl)-2-amino-7-fluorobenzo[b]thiophene-3-carbonitrile]
< 5 µM	< 5 µM	< 5 µM	N#Cc1c(N)sc2c(F)ccc(-c3c(Cl)cc4c(N5CCC6(CCN6C(=O)n6cccc6C#N)C5)nc(OC[C@@]56CCCN5C[C@H](F)C6)nc4c3F)c12 (stereo partly drawn) [Compound 289, 1-(6-(7-(2-amino-3-cyano-7-fluorobenzo[b]thiophen-4-yl)-6-chloro-8-fluoro-2-(((2R,7aS)-2-fluorotetrahydro-1H-pyrrolizin-7a(5H)-yl)methoxy)quinazolin-4-yl)-1,6-diazaspiro[3.4]octane-1-carbonyl)-1H-pyrrole-2-carbonitrile]
< 5 µM	< 5 µM	< 5 µM	N#Cc1c(N)sc2c(F)ccc(-c3c(Cl)cc4c(N5CCC6(CCN6C(=O)n6ccnn6)C5)nc(OC[C@@]56CCCN5C[C@H](F)C6)nc4c3F)c12 (stereo partly drawn) [Compound 248, 4-(4-(1-(1H-1,2,3-triazole-1-carbonyl)-1,6-diazaspiro[3.4]octan-6-yl)-6-chloro-8-fluoro-2-(((2R,7aS)-2-fluorotetrahydro-1H-pyrrolizin-7a(5H)-yl)methoxy)quinazolin-7-yl)-2-amino-7-fluorobenzo[b]thiophene-3-carbonitrile]
< 5 µM	< 5 µM	< 5 µM	Nc1nc2c(-c3c(Cl)cc4c(N5CCCC6(CCN6)C5)nc(OC[C@@]56CCCN5C[C@H](F)C6)nc4c3F)ccc(F)c2s1 (stereo partly drawn) [Compound 202, 4-(6-chloro-8-fluoro-2-(((2R,7aS)-2-fluorotetrahydro-1H-pyrrolizin-7a(5H)-yl)methoxy)-4-(1,6-diazaspiro[3.5]nonan-6-yl)quinazolin-7-yl)-7-fluorobenzo[d]thiazol-2-amine]
< 5 µM	< 5 µM	< 5 µM	N#CCC(=O)N1CC[C@@]12CCN(c1nc(OC[C@@]34CCCN3C[C@H](F)C4)nc3c(F)c(-c4ccc(F)c5sc(N)c(C#N)c45)c(Cl)cc13)C2 [Compound 316]
< 5 µM	< 5 µM	< 5 µM	N#Cc1c(N)sc2c(F)ccc(-c3c(Cl)cc4c(N5CCCC6(CCN6C(=O)n6cncn6)C5)nc(OC[C@@]56CCCN5C[C@H](F)C6)nc4c3F)c12 (stereo partly drawn) [Compound 275, 4-(4-(1-(1H-1,2,4-triazole-1-carbonyl)-1,6-diazaspiro[3.5]nonan-6-yl)-6-chloro-8-fluoro-2-(((2R,7aS)-2-fluorotetrahydro-1H-pyrrolizin-7a(5H)-yl)methoxy)quinazolin-7-yl)-2-amino-7-fluorobenzo[b]thiophene-3-carbonitrile]
< 5 µM	< 5 µM	< 5 µM	N#Cc1c(N)sc2c(F)ccc(-c3c(Cl)cc4c(N5CCC6(CCN6C(=O)C(Cl)Cl)C5)nc(OC[C@@]56CCCN5C[C@H](F)C6)nc4c3F)c12 (stereo partly drawn) [Compound 347, 2-amino-4-(6-chloro-4-(1-(2,2-dichloroacetyl)-1,6-diazaspiro[3.4]octan-6-yl)-8-fluoro-2-(((2R,7aS)-2-fluorotetrahydro-1H-pyrrolizin-7a(5H)-yl)methoxy)quinazolin-7-yl)-7-fluorobenzo[b]thiophene-3-carbonitrile]
< 5 µM	< 5 µM	< 5 µM	C[C@H](Oc1nc(N2CCCC3(CCN3)C2)c2cc(Cl)c(-c3ccc(F)c4sc(N)c(C#N)c34)c(F)c2n1)[C@@H]1CCCN1C (stereo partly drawn) [Compound 210, 2-amino-4-(6-chloro-8-fluoro-2-((S)-1-((S)-1-methylpyrrolidin-2-yl)ethoxy)-4-(1,6-diazaspiro[3.5]nonan-6-yl)quinazolin-7-yl)-7-fluorobenzo[b]thiophene-3-carbonitrile]
